Key:
HeLa cells = experiment: Selenite-induced cell death in HeLa cells, PI staining and flow cytometry; type: cell-based; conditions: 22 h with selenite 8 μM and increasing concentrations
Procedure: Cells, e.g. HeLa cells (2×10^5), untreated or treated with apoptosis-inducing reagents, were analyzed for apoptotic cell death using PI, annexin V-FITC and flow cytometer analysis. Cells were collected (1500×g for 10 min), washed, and resuspended in 200 μl binding buffer (10 mM HEPES/NaOH, pH 7.4, 140 mM NaCl, and 2.5 mM CaCl2). Annexin V-FITC was added according to the recommended Protocol (Enzo Life Sciences, Switzerland), and the cells were incubated in the dark for 15 min. Cells were then washed with binding buffer and resuspended in 200 μl binding buffer, to which PI was added immediately before flow cytometry analysis. At least 10,000 events were collected, recorded on a dot plot, and analyzed by the FACSCalibur™ flow cytometer software (BD Biosciences, Franklin Lakes, N.J.).
HeLa cells were incubated with varying concentrations (2-20 μM) of racemic compound of Formula 1 (VBIT-4) and of the enantiomers of compound of Formula 1 (VBIT-4-1 and VBIT-4-2) for 1 hour, and then with or without selenite (25 μM, 3 hours). Cells were harvested and assayed for apoptotic cell death, using PI staining and FACS analysis. The results shown in the FIG. 14b correspond to means±SD (n=3).
Cells (2.5 mg/ml) were washed with and resuspended in PBS, pH 8.3 and incubated with membrane-permeable cross-linker EGS (250 μM) at 30° C. for 15 min and then subjected to SDS-PAGE and immunoblotting using anti-VDAC1 antibodies. Several anti-VDAC1 antibody-labeled protein bands were obtained upon exposure to the apoptosis stimuli that are correspond to VDAC1 dimers, trimers, tetramers and multimers. Cell death as induced by selenite and inhibited by the compound of Formula 3 (VBIT-12) or compound of Formula 11 (DIV00781) is shown (FIG. 21B), with closed circles corresponding to the compound of Formula 3 and open circles corresponding to the compound of Formula 11. Cell death was analyzed using propidium iodide (PI) staining and flow cytometry.

[1] = target: T1, rVDAC1-GFP2 / rVDAC1-Rluc in T-REx-293 cells (Rattus norvegicus, UniProt Q9Z2L0); experiment: BRET2 assay of VDAC1 oligomerization induced by apoptosis inducers (Method A); type: cell-based; conditions: test compound 10 μM, 1 h pre-incubation; for BRET2, % of inhibition, As2O3: As2O3 60 μM (3 h); for BRET2, % of inhibition, STS: STS 1 μM (3 h); for BRET2, % of inhibition, Selenite: selenite 30 μM (3 h)
T1 construct: The rVDAC1 gene was cloned into BamHI and HindIII sites of the BRET2 plasmids (N2 variants); expressed in transfected cells; host or cells: T-REx-293 cells stably expressing hVDAC1-shRNA (T-REx-pS10)
Text: BRET2 screening may be carried out as described in the art ([…] et al., (2010) Oligomerization of the mitochondrial protein voltage-dependent anion channel is coupled to the induction of apoptosis. Mol Cell Biol 30, 5698-5709). Plasmids encoding the fusion proteins rat(r)VDAC1-GFP2 and rVDAC1-luc were constructed using the BRET2 plasmids (Perkin Elmer, Waltham, Mass.). The rVDAC1 gene was cloned into BamHI and HindIII sites of the BRET2 plasmids (N2 variants) and amplified using the forward primer [NT] and the reverse primer [NT]. […] The cells were transfected using calcium phosphate method. Transfections were carried out with 0.2 μg of a plasmid coding for rVDAC1-Rluc and with 0.8 μg of a plasmid coding for rVDAC1-GFP2. As a negative control, cells were transfected with plasmids encoding for rVDAC1-Rluc (0.2 μg DNA) and GFP2 (0.8 μg). In another control (control cells), cells were also transfected with a plasmid encoding for rVDAC1-luc (0.2 μg) and plasmid pcDNA4/TO (0.8 μg). The BRET2 signal represents the ratio of the GFP2 fluorescence, measured at its emission wavelength (510 nm), over the light intensity (luminescence) emitted at 395 nm. All measurements were performed using the Infinite 200 ELISA reader (Tecan). BRET2 signals were defined as GFP2/Rluc intensity ratio and calculated as follows: DNA encoding fusion proteins rVDAC1-Rluc (in which RLuc was connected to rVDAC1 at the C terminal position through a linker (GGGS)) and rVDAC1-GFP2 (in which the GFP2 was fused to the rVDAC1 C terminus) was cloned into BRET2 vectors. rVDAC1-GFP2 and rVDAC1-Rluc were expressed in T-REx-293 cells stably expressing shRNA-hVDAC1 and a low level of endogenous hVDAC1 (referred to as T-REx-pS10 cells) hVDAC1-shRNA, being specific to human VDAC1, allowed the expression of rVDAC1 and decreased the participation of endogenous hVDAC1 in oligomerization, thereby enhancing the BRET2 signal. rVDAC1-GFP2 and rVDAC1-Rluc expression levels were correlated with the amount of plasmids used. […] Following incubation, cells were harvested using trypsin, washed twice with PBS by centrifugation at 1000×g, 5 min, resuspended in 200 μl of PBS and divided between two wells of a 96-well clear-bottom plate (Grenier). […] The screening was conducted using BRET2 assay as described above. […] After treatment, the medium was removed and assayed for BRET2 signals as described above. Liquid handling was done with the Tecan (Männedorf, Switzerland) Freedom 150 Robotic & MCA Liquid Handling System, while luciferase luminescence and fluorescence readings were obtained a robot-integrated Tecan Infinite M1000 reader. Method A was used for screening of VDAC1 oligomerization inhibitors. […] Table 2 provides a summary of BRET2-based screen results of the anti-VDAC1 oligomerization activity of compounds from the NCI library. Results are presented as percent inhibition of the BRET2 signal induced by the indicated pro-apoptotic agent.

T1 sequence (Q9Z2L0 with tags, fused parts or gaps limits assumed): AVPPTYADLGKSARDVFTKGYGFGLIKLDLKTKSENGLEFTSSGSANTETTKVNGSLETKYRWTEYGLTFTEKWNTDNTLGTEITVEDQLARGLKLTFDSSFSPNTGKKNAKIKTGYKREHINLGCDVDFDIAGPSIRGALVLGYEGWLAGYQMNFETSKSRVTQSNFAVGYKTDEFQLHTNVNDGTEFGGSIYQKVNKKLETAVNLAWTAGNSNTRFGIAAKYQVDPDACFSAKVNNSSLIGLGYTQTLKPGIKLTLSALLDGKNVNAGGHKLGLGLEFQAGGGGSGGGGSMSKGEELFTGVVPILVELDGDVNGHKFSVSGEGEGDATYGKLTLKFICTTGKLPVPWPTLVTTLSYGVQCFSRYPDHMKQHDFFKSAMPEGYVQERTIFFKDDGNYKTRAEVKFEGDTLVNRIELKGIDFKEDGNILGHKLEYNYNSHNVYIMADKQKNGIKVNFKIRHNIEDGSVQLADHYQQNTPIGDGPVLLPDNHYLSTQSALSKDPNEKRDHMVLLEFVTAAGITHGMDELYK

Structure (SMILES)	cell death as induced by selenite (HeLa cells)	BRET2, % of inhibition, As2O3 [1] [%]	BRET2, % of inhibition, STS [1] [%]	BRET2, % of inhibition, Selenite [1] [%]
O=C(O)CN1CN(c2ccccc2)C2(CCN(Cc3cccc4ccccc34)CC2)C1=O [Formula 11]	inhibited	–	–	–
CCOc1ccc(/C=C2\CCc3ccccc3C2=O)cc1 [NSC 252172]	–	83.1	44.1	50
O=C(Oc1ccc(NC(=O)c2cc3c(cc2Br)OCO3)cc1)c1ccccc1 [NSC 268487]	–	86.7	0	69.4
Nc1cc2c3c(cccc3c1)C(=O)N(CCN1CCCC1)C2=O [NSC 308849]	–	99.5	0	0
CCN(CC)Cc1cc2[nH]c3c4ccc(Cl)cc4ncc3c2cc1OC [NSC 317605]	–	46	0.3	52
Cc1ccc(NC(=O)Nc2nc3ccccc3s2)cc1NC(=O)Nc1nc2ccccc2s1 [NSC 319990]	–	96.2	22	43.2
Clc1ccc(-c2nc(-c3cc4cc(Cl)ccc4o3)cs2)cc1 [NSC 321502]	–	67.3	22.4	46.5
O=C(c1cccnc1)c1cc(-c2ccccn2)c(=O)n2ccccc12 [NSC 324623]	–	78	0	16.3
O=C(Nc1ccc(Cl)c([N+](=O)[O-])c1)Nc1nc2ccccc2s1 [NSC 329249]	–	82.8	12.1	22.4
Nc1nc(Nc2ccccc2)n[nH]1 [NSC 331208]	–	86.4	0	28.3
O=C(Nc1ccccc1-c1ccccc1)C(=O)Nc1ccccc1-c1ccccc1 [NSC 338042]	–	44.7	0	80.2
COC(=O)C1(C)Cc2cc(OC(C)=O)c(OC(C)=O)cc2N1 (stereo not shown) [NSC 341956]	–	51.5	0	24
CCOc1cccc(/C=C2\NC(=S)N(c3ccccc3)C2=O)c1O [NSC 343966]	–	39.4	0	20.1
COc1ccc(C2OC3=C(Nc4cc(C)c(C)cc4N3)C2=O)cc1 (stereo not shown) [NSC 372275]	–	72.5	28.5	46.5
O=[N+]([O-])c1ccc(-c2ncc(-c3ccc(Br)cc3)o2)cc1 [NSC 372767]	–	77.3	0	26.6
C=CCNC(=O)c1ccc(OC)cc1 [NSC 404057]	–	74.6	0	37.1
O=C(Nc1ccc(Cl)c(Cl)c1)Nc1ccccc1O [NSC 522131]	–	86.8	0	47.6
O=C(Nc1ccc(Br)c2ccccc12)c1ccc2ccccc2c1O [NSC 601359]	–	97.7	46	74.4
c1ccc2c(c1)[nH]c1c3ccccc3sc21 [NSC 605333]	–	63.7	0	16
CC(=O)N1C=Cc2c(c(C)c3c([nH]c4ccccc43)c2C)C1 [NSC 657149]	–	88.3	0	25.3
CN(C)c1cccc(/C=C(\C#N)c2ccccc2)c1 [NSC 667251]	–	77.5	1.4	0
COC(=NC(C)C)NC(C)C [NSC 672441]	–	69.6	0	41.8
CN(C)c1ccc(N=Nc2cccc3ccoc23)cc1 [NSC 680515]	–	87.8	33.4	66.3

Source: US10787423B2, “Piperazine and piperidine derivatives, their synthesis and use thereof in inhibiting VDAC oligomerization, apoptosis and mitochondria dysfunction” (THE NATIONAL INSTITUTE FOR BIOTECHNOLOGY IN THE NEGEV LTD., priority 2015, dated 2020)
